For test [1], the species on record is Gallus gallus. The experiment in a line: Bind to chick intestinal Vitamin D3 receptor for 1,25-(OH)2-D3.
In test [2] the target is T1, Vitamin D-binding protein (Rattus norvegicus) (UniProt P04276).
T1 sequence (whole entry): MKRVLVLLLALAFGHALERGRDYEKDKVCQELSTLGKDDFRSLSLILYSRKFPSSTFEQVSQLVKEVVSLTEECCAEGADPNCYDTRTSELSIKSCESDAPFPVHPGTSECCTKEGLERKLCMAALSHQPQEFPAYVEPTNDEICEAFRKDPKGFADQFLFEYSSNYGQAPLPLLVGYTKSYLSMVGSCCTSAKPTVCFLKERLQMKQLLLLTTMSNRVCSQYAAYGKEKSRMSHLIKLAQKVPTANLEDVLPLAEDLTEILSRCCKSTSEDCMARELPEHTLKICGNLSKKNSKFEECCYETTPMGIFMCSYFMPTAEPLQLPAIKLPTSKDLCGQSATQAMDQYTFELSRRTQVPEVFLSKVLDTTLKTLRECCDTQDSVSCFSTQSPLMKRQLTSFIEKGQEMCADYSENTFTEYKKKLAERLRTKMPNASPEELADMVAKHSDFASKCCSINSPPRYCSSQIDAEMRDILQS
The experiment in a line: Displacement of [3H]25-(OH)-D3 from rat plasma Vitamin D binding protein. The test is classed as cell-free.

The species named for test [3] is Rattus norvegicus. The experiment in a line: Calcium binding protein induction in duodenal organ culture at a concentration of 1 nM in Male Albino rats. It is filed as functional.
For test [4], the species on record is Rattus norvegicus. Put plainly: Calcium binding protein induction in duodenal organ culture at a concentration of 10 nM in Male Albino rats. It is filed as functional.
Test [5] is described as follows: Relative potency against calcium binding protein induction in duodenal organ culture at a concentration of 0.01 nM compared to 1,25-(OH)2-D3 in Male Albino rats. It is filed as functional.
For test [6], the species on record is Rattus norvegicus. Put plainly: Calcium binding protein induction in duodenal organ culture at a concentration of 0.1 nM in Male Albino rats. The test is classed as functional.
Test [7] is filed under the species Rattus norvegicus. The experiment in a line: Calcium binding protein induction in duodenal organ culture at a concentration of 0.01 nM in Male Albino rats. It is filed as functional.

SMILES strings stand for the structures.

In the case of `C=C1CC[C@H](O)C/C1=C/C=C1\CCC[C@]2(C)[C@@H]([C@H](C)CCC[C@@](C)(O)CO)CC[C@@H]12`, the figures for the B50 in test [1] and in test [2] were 4300 nM and 4.03 nM, respectively.

As for `C=C1/C(=C/C=C2\CCC[C@]3(C)[C@@H]([C@H](C)CCC(F)(F)C(O)(CC)CC)CC[C@@H]23)C[C@@H](O)C[C@@H]1O`, the “Ca2+ binding protein” value in test [3] is 49.5 ug (100mg of duodenum)-1; in test [4], 94 ug (100mg of duodenum)-1; in test [6], 21.7 ug (100mg of duodenum)-1; in test [7], 11.9 ug (100mg of duodenum)-1. Further, the “Relative potency” value in test [5] stood at 325.

`C=C1CC[C@H](O)C/C1=C/C=C1\CCC[C@]2(C)[C@@H]([C@H](C)CCCC(C)C)CC[C@@H]12` gave a B50 in test [2] of 338 nM.

Consider `C=C1CC[C@H](O)C/C1=C/C=C1\CCC[C@]2(C)[C@@H]([C@H](C)CC[C@@H](O)C(C)(C)O)CC[C@@H]12`, for which the B50 was 804 nM in test [1] and 3.22 nM in test [2].

As to `C=C1/C(=C/C=C2\CCC[C@]3(C)[C@@H]([C@H](C)CCCC(C)C)CC[C@@H]23)C[C@@H](O)C[C@@H]1O`, the B50 came out at 139 nM in test [1] and 848 nM in test [2].

These data come from ChEMBL document CHEMBL1125035, “Synthesis and biological activity of novel vitamin D analogues: 24,24-difluoro-25-hydroxy-26,27-dimethylvitamin D3 and 24,24-difluoro-1 alpha,25-dihydroxy-26,27-dimethylvitamin D3” (1990).
